One test deals with T1, EGFR (ErbB1) (Homo sapiens, UniProt P00533).
T1 construct: purchased Invitrogen
Briefly: Z'-LYTE kinase inhibition assay (Invitrogen), EGFR. Type of test: biochemical. To be noted: for inhibition at 0.041 µM: compound at 41 nM, 10 μM of ATP; for inhibition at 0.1 µM: compound at 100 nM, [ATP] = Km. The protocol: (§1) Inhibitory activities of compounds against BTK, EGFR and EGFR mutants (EGFR L858R/T790M) were measured by Invitrogen using Z′-LYTE® Method as briefly described in the following.
(§2) Test Compounds are screened in 1% DMSO (final) in the well. For 10 point titrations, 3-fold serial dilutions are conducted from the starting concentration. All ATP Solutions are diluted to a 4× working concentration in Kinase Buffer (50 mM HEPES pH 7.5, 0.01% BRIJ-35, 10 mM MgCl2, 1 mM EGTA). Peptide/Kinase Mixtures are diluted to a 2× working concentration in the appropriate Kinase Buffers as described below.
(i) Peptide/Kinase Mixtures for measurement of EGFR (ErbB1):
The 2×EGFR (ErbB1)/Tyr 04 mixture is prepared in 50 mM HEPES pH 7.5, 0.01% BRIJ-35, 10 mM MgCl2, 4 mM MnCl2, 1 mM EGTA, 2 mMDTT. The final 10 μL Kinase Reaction consists of 1.1-5.25 ng EGFR (ErbB1) and 2 μM Tyr 04 in 50 mM HEPES pH 7.5, 0.01% BRIJ-35, 10 mM MgCl2, 2 mM MnCl2, 1 mM EGTA, 1 mM DTT. After the 1 hour Kinase Reaction incubation, 5 μL of a 1:64 dilution of DevelopmentReagent B is added.
(§3) Reaction starts by 30-second shaking of mixture consisting of 2.5 μL 4× test compound, 5 μL 2× kinase reaction mixture and 2.5 μL 4×ATP Solution on Bar-coded Corning, low volume NBS, black 384-well plate (Corning Cat. #3676). Then the mixture is incubated for 60-minute at room temperature for the kinase reaction, followed by addition of 5 μL of a 1:1024 dilution of development reagent A and 30-second plate shake. The mixture is then incubated for another 60-minute at room temperature for development reaction. Finally fluorescence is read by plate reader. […] The scale utilized in Tables 2 and 3 is as follows: ++ more than 50% inhibition and + less than 50% inhibition.
(§4) To determine IC50 of a compound against EGFR or EGFR mutants, a series of concentrations of the compound were tested for the inhibition. IC50 was calculated by plotting the concentration of compound vs the percentage of inhibition in treated wells using GraphPad Prism 5. […] The scale utilized in Table 4 is as follows: ++ less than 100 nM and + greater than 100 nM.

The target in the next test is T2, EGFR (ErbB1) T790M L858R (Homo sapiens, UniProt P00533, L858R/T790M).
T2 construct: purchased Invitrogen
Briefly: Z'-LYTE kinase inhibition assay (Invitrogen), EGFR L858R/T790M. The format is biochemical. To be noted: for inhibition at 0.0137 µM: compound at 13.7 nM, 10 μM of ATP; for inhibition at 0.1 µM: compound at 100 nM, [ATP] = Km. As to the method: as §1, §2
(iv) Peptide/Kinase Mixtures for measurement of EGFR (ErbB1) T790M L858R:
The 2×EGFR (ErbB1) T790M L858R/Tyr 04 mixture is prepared in 50 mM HEPES pH 6.5, 0.01% BRIJ-35, 10 mM MgCl2, 1 mM EGTA, 0.02% NaN3. The final 10 μL Kinase Reaction consists of 0.38-4.22 ng EGFR (ErbB1) T790M L858R and 2 μM Tyr 04 in 50 mM HEPES pH 7.0, 0.01% BRIJ-35, 10 mM MgCl2, 1 mM EGTA, 0.01% NaN3. After the 1 hour Kinase Reaction incubation, 5 μL of a 1:64 dilution of Development Reagent B is added.
as §3, §4

For a further test, the target named is T3, BTK (Homo sapiens, UniProt Q06187).
T3 construct: purchased Invitrogen
Briefly: Z'-LYTE kinase inhibition assay (Invitrogen), BTK. Type of test: biochemical. To be noted: for inhibition at 0.1 µM: compound at 100 nM, [ATP] = Km. The protocol: as §1, §2
(v) Peptide/Kinase Mixtures for measurement of BTK:
The 2×BTK/Tyr 01 mixture is prepared in 50 mM HEPES pH 7.5, 0.01% BRIJ-35, 10 mM MgCl2, 1 mM EGTA. The final 10 μL Kinase Reaction consists of 1.04-10.4 ng BTK and 2 μM Tyr 01 in 50 mM HEPES pH 7.5, 0.01% BRIJ-35, 10 mM MgCl2, 1 mM EGTA. After the 1 hour Kinase Reaction incubation, 5 μL of a 1:256 dilution of Development Reagent B is added.
as §3, §4

The subject of the next test is A549 cells. Briefly: MTT cell growth inhibition assay, A549. Type of test: cell-based. To be noted: Homo sapiens, A549 cells (KRAS mutation), 72 h. The protocol:
(§5) Inhibition of cell growth by compounds was measured using MTT assay (Mosmann, T., Journal of Immunological Methods, 1983, 65, 55-63). Tumor cell lines were purchased from ATCC (American Type Culture Collection, Manassas, Va.). All cell lines were maintained in RPMI 1640 (Hyclone) supplemented with 10% fetal bovine serum (FBS, Hyclone), glutamine (2 mM, Hyclone), and antibiotics (penicillin 100 U/mL and streptomycin 50 μg/mL) at 37° C. in a humidified atmosphere of 5% CO2 in air. Taxol (as a positive control, Sigma) and compounds were dissolved in DMSO (Sigma), and the final concentration of DMSO in the medium was 1%. Tumor cells were plated in 96-well plates at densities of about 4000 cells/well of a 96-well plate and allowed to adhere/grow for 24 h. They were then treated with various concentrations of drug for 72 h. 3-(4,5-Dimethylthiazol-2-yl)-2,5-diphenyltetrazolium bromide (MTT, Sigma) was used to determine the number of viable cells at the time of compound addition and the number of cells remaining after 72 h compound exposure. The number of cells remaining after 72 h was compared to the number of viable cells at the time of compound addition by measuring the absorbance at 570 nm, allowing for the calculation of growth inhibition.
(§6) All concentrations of compounds were tested in triplicate and controls were averaged over 4 wells. IC50 was calculated by plotting the concentration of compound vs the percentage of inhibition in treated wells using GraphPad Prism 5.
(§7) Tables 5 show IC50 values of several compounds of the invention in A549, A431, H1299, and H1975 human cancer cells. A549 cells have a mutation on KRAS, H3255 cells have L858R mutation, and H1975 cells have double EGFR mutations (L858R/T790M). The scale utilized in Table 5 is as follows: +++ less than 100 nM; ++ between 100 nM and 500 nM; and + greater than 500 nM.

Another test relates to A431 cells. Briefly: MTT cell growth inhibition assay, A431. Type of test: cell-based. To be noted: Homo sapiens, A-431, 72 h. The protocol: as §5, §6, §7
For the next test, the system named is H1975 cells. Briefly: MTT cell growth inhibition assay, H1975. To be noted: Homo sapiens, NCI-H1975, H1975 cells (EGFR L858R/T790M), 72 h. The format is cell-based. The protocol:
as §5, §6, §7

pIC50: −log10 of the molar value.

T1 sequence (P00533 25-1210): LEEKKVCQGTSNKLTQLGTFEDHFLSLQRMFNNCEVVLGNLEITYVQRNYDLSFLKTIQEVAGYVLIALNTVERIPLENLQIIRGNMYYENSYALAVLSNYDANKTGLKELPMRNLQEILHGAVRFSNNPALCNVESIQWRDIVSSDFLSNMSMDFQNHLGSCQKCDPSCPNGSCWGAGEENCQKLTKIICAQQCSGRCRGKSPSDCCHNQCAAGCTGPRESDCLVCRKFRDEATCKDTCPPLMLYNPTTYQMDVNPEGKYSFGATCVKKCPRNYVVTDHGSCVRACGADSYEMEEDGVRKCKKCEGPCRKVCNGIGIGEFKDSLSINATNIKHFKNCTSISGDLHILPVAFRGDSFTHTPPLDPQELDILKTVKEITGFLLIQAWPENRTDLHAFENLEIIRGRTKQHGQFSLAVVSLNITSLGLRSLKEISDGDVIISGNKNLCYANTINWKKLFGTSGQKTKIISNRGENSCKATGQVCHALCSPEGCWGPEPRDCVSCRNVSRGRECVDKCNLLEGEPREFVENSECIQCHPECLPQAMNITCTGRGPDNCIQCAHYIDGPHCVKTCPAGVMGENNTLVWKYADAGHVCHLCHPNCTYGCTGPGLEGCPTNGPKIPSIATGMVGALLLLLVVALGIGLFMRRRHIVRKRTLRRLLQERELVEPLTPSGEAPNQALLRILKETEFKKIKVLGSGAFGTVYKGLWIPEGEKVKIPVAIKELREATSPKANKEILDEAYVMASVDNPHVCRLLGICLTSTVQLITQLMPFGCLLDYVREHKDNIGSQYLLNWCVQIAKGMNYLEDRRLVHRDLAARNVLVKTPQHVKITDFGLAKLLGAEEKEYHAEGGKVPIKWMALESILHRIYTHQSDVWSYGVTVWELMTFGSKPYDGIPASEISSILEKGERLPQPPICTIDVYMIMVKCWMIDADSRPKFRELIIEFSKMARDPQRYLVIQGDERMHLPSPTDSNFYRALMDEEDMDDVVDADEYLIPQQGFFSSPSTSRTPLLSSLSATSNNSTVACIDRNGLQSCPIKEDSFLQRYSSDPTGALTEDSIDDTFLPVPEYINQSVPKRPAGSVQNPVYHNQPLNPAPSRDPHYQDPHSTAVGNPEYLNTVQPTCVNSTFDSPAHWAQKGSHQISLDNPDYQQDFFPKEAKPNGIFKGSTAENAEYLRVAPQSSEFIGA
T3 sequence (Q06187 whole entry): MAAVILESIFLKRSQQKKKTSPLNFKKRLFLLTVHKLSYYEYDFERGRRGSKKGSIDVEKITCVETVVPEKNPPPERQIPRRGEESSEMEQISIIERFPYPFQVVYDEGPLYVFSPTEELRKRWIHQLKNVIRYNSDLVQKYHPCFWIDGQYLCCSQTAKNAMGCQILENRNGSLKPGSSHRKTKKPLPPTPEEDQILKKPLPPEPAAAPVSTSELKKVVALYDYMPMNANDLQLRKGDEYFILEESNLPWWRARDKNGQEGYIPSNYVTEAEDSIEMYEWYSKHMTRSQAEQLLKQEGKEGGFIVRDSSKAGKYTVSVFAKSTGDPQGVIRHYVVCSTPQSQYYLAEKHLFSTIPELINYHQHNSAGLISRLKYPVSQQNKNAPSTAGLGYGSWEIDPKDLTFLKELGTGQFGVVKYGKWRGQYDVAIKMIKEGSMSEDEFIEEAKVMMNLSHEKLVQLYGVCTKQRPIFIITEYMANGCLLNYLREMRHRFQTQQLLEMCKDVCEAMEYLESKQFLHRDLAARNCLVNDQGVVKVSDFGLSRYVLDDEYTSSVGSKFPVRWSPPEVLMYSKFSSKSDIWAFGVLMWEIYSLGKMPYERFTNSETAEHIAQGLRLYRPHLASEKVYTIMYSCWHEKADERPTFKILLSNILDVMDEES
T2 sequence (P00533 25-1210 T790M/L858R): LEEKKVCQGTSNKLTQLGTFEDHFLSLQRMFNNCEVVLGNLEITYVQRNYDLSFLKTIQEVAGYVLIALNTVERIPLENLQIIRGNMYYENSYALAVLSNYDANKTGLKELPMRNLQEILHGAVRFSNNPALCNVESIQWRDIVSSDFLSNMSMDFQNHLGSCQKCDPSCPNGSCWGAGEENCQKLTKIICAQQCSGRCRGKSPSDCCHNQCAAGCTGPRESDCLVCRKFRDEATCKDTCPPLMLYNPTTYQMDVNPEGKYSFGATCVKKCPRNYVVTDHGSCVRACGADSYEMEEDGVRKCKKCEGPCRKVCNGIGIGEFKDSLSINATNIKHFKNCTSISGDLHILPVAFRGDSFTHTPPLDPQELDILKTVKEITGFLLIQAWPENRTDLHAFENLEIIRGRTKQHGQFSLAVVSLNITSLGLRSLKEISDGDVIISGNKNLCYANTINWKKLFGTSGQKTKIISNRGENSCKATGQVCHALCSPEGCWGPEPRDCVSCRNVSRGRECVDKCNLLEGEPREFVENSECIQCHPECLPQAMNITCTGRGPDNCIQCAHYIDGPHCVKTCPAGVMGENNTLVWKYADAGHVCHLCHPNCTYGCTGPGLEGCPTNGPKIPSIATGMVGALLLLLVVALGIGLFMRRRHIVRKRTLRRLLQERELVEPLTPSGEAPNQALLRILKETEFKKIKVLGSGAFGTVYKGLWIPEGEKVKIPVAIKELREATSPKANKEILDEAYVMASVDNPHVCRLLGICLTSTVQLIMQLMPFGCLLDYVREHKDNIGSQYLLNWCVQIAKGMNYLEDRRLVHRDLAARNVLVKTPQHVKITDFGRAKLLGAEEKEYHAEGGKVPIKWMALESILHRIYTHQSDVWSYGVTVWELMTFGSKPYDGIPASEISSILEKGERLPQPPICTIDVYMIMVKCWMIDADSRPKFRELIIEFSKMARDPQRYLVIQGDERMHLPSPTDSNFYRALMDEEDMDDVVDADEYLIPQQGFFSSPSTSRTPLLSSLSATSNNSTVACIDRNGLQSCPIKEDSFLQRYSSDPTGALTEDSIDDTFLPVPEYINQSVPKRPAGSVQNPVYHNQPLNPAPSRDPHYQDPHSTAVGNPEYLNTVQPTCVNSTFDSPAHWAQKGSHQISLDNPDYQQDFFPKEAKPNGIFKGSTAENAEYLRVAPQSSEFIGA

The pIC50 is −log10 of the IC50, conventionally taken in molar units. Lower therefore signals a high IC50. For `C=CC(=O)Nc1cc(Nc2ncc3cccc(Cl)c3n2)ccc1N(C)CCN(C)C` [Example C002, N-(5-((8-chloroquinazolin-2-yl)amino)-2-((2-(dimethylamino)ethyl)(methyl)amino)phenyl) acrylamide], the pIC50 was under 7.00 on EGFR (ErbB1); under 7.00 against EGFR (ErbB1) T790M L858R; under 7.00 at BTK; under 6.30 in the test on A549 cells; 6.30 to 7.00 with A431 cells; over 7.00 with H1975 cells.
What is called inhibition is the drop in the measured response relative to a control, in per cent. As for `C=CC(=O)Nc1cc(Nc2ncc3cccc(OC)c3n2)ccc1N(C)CCN(C)C` [Example C003, N-(2-((2-(dimethylamino)ethyl)(methyl)amino)-5-((8-methoxyquinazolin-2-yl)amino)phenyl)acrylamide], the inhibition at 0.0137 µM against EGFR (ErbB1) T790M L858R is under 50%. For the same compound, the inhibition at 0.1 µM on EGFR (ErbB1) T790M L858R and against BTK was under 50% throughout. For the same compound, the pIC50 was under 6.30 with A549 cells, 6.30 to 7.00 in the test with A431 cells and over 7.00 with H1975 cells.
With `C=CC(=O)Nc1cc(Nc2ncc3cccc(-c4ccccc4Cl)c3n2)ccc1N(C)CCN(C)C` [Example C008, N-(5-((8-(2-chlorophenyl)quinazolin-2-yl)amino)-2-((2-(dimethylamino)ethyl)(methyl)amino)phenyl) acrylamide], the inhibition at 0.041 µM against EGFR (ErbB1) is under 50%; on BTK (compound at 41 nM, 10 μM of ATP), over 50%. The inhibition at 0.1 µM at EGFR (ErbB1) was under 50%; on EGFR (ErbB1) T790M L858R, under 50%; at BTK, over 50%. The compound also gave an inhibition at 0.0137 µM on EGFR (ErbB1) T790M L858R of over 50%. For the same compound, the pIC50 with A549 cells and with H1975 cells was 6.30 to 7.00 throughout.
For the compound `C=CC(=O)Nc1cc(Nc2ncc3cccc(-c4cccc(Cl)c4)c3n2)ccc1N1CCOCC1` [Example C016, N-(5-((8-(3-chlorophenyl)quinazolin-2-yl)amino)-2-morpholinophenyl)acrylamide], at EGFR (ErbB1), the inhibition at 0.041 µM was under 50% and the inhibition at 0.1 µM was under 50%. At EGFR (ErbB1) T790M L858R, the inhibition at 0.0137 µM was under 50% and the inhibition at 0.1 µM is under 50%. This compound had an inhibition at 0.1 µM against BTK of under 50%. Moreover, the pIC50 with H1975 cells was over 7.00.
As for `C=CC(=O)Nc1cc(Nc2ncc3cccc(-c4cccc(Cl)c4)c3n2)c(OC)cc1N(C)CCN(C)C` [Example C017, N-(5-((8-(3-chlorophenyl)quinazolin-2-yl)amino)-2-((2-(dimethylamino)ethyl)(methyl)amino)-4-methoxyphenyl)acrylamide], the inhibition at 0.1 µM on EGFR (ErbB1), at EGFR (ErbB1) T790M L858R and at BTK was over 50% each time. The pIC50 with A549 cells is 6.30 to 7.00; with H1975 cells, over 7.00.
`C=CC(=O)Nc1cc(Nc2ncc3cccc(-c4cccc(F)c4)c3n2)c(OC)cc1N(C)CCN(C)C` [Example C018, N-(2-((2-(dimethylamino)ethyl)(methyl)amino)-5-((8-(3-fluorophenyl)quinazolin-2-yl)amino)-4-methoxyphenyl)acrylamide]: the inhibition at 0.1 µM on EGFR (ErbB1), against EGFR (ErbB1) T790M L858R and against BTK was over 50% throughout. Moreover, the pIC50 in the test with A549 cells was 6.30 to 7.00; with H1975 cells, over 7.00.
As to `C=CC(=O)Nc1cc(Nc2ncc3cccc(-c4cccc(F)c4)c3n2)c(OC)cc1OC1CCN(C)C1` (centres unmarked) [Example C019, N-(5-((8-(3-fluorophenyl)quinazolin-2-yl)amino)-4-methoxy-2-((1-methylpyrrolidin-3-yl)oxy)phenyl)acrylamide], the inhibition at 0.1 µM on EGFR (ErbB1), on EGFR (ErbB1) T790M L858R and against BTK was over 50% each time. For the same compound, the pIC50 in the test on A549 cells was 6.30 to 7.00; in the test with H1975 cells, over 7.00.
With `C=CC(=O)Nc1cc(Nc2ncc3cccc(-c4cccc(Cl)c4)c3n2)c(OC)cc1OC1CCN(C)C1` (centres unmarked) [Example C020, N-(5-((8-(3-chlorophenyl)quinazolin-2-yl)amino)-4-methoxy-2-((1-methylpyrrolidin-3-yl)oxy)phenyl)acrylamide], the inhibition at 0.1 µM against EGFR (ErbB1), against EGFR (ErbB1) T790M L858R and against BTK was over 50% throughout. The pIC50 is 6.30 to 7.00 with A549 cells and over 7.00 in the test on H1975 cells.
On to `C=CC(=O)Nc1cc(Nc2ncc3cccc(-c4cncc(Cl)c4)c3n2)ccc1N(C)CCN(C)C` [Example C021], for which the figures for the inhibition at 0.1 µM against EGFR (ErbB1), against EGFR (ErbB1) T790M L858R and on BTK were under 50%, over 50% and over 50%, respectively. Further, in the test on H1975 cells, the pIC50 was over 7.00.
For the compound `C=CC(=O)Nc1cc(Nc2ncc3cccc(-c4cccc(F)c4)c3n2)c(OC)cc1N1CCC(N(C)C)C1` (centres unmarked) [Example C023, N-(2-(3-(dimethylamino)pyrrolidin-1-yl)-5-((8-(3-fluorophenyl)quinazolin-2-yl)amino)-4-methoxyphenyl)acrylamide], the inhibition at 0.1 µM at BTK is over 50%. In addition, the pIC50 in the test on A549 cells was under 6.30; in the test on A431 cells it was over 7.00; in the test with H1975 cells it was over 7.00.
As for `C=CC(=O)Nc1cc(Nc2ncc3cccc(-c4cccc(F)c4)c3n2)ccc1N1CCC(N(C)C)C1` (centres unmarked) [Example C024, N-(2-(3-(dimethylamino)pyrrolidin-1-yl)-5-((8-(3-fluorophenyl)quinazolin-2-yl)amino)phenyl)acrylamide], the inhibition at 0.1 µM against BTK was over 50%. Also, the results for the pIC50 in the test on A549 cells, in the test with A431 cells and in the test on H1975 cells were 6.30 to 7.00, over 7.00 and over 7.00, respectively.
On to `C=CC(=O)Nc1cc(Nc2ncc3cccc(-c4cccc(F)c4)c3n2)ccc1N1CC(N(C)C)C1` [Example C025, N-(2-(3-(dimethylamino)azetidin-1-yl)-5-((8-(3-fluorophenyl)quinazolin-2-yl)amino)phenyl)acrylamide], for which the inhibition at 0.1 µM at BTK was over 50%. Besides, the pIC50 with A549 cells was 6.30 to 7.00; with A431 cells it was over 7.00; in the test with H1975 cells, over 7.00.
